Assay [1] deals with pkDAAO (porcine kidney DAAO) (Sus scrofa (Pig), UniProt P00371). The assay can be described thus: pkDAAO (porcine kidney DAAO) activity, D-Proline substrate, OPD OD450. Type of assay: biochemical. The procedure: The pkDAAO (porcine kidney DAAO) activity was measured by using D-Proine as a substrate to produce hydrogen peroxide (H2O2). The produced H2O2 would be oxidized by peroxidase, and the produced free radicals would further react with 1,2-Phenylenediamine (OPD) reagent. […] The OD450 would be measured to represent the activity of pkDAAO. All compounds were dissolved in DMSO. Each compound was diluted with DMSO in 3 or 4-fold serial dilution to create a 9-point dose response curve. Each sample was added in triplicate, 10 μL/well, into 96-well assay microplate. Positive control wells were added with 10 μL of DMSO. The diluted compounds were incubated with pkDAAO in dark for 10 minutes and then reacted with D-Proline. The final reaction mixture was composed of 0.01 U/mL pkDAAO, 0.03% OPD, 25 U/mL HRP and 40 mM D-Proline in PBS. The reaction plates were then incubated in the dark at room temperature. The OD450 absorbance readout was detected at 0 and 20 minute by Molecular Device Spectra Max Plus reader. The percentage of inhibition values for each well were calculated with the following equation: The percentage of inhibition=(OD450sample, 20 min−OD450sample, 0 min)/(OD450DMSO, 20 min−OD450DMSO, 0 min)×100%
pkDAAO (porcine kidney DAAO), sequence (P00371 whole entry): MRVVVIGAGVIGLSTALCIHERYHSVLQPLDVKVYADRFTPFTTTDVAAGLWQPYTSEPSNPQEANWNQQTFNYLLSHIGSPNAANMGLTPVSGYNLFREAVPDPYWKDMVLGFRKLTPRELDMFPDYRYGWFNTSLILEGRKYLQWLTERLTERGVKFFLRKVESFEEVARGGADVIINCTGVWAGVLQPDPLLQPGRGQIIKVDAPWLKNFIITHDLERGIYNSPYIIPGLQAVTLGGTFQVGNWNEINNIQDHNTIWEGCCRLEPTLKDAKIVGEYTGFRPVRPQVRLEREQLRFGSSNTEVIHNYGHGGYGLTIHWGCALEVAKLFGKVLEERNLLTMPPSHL
(§1) The nonlinear curve fitting model in GraphPad Prism 5 was used to calculate IC50 value for each compound.

In another assay the target is hDAAO (human DAAO) (Homo sapiens (Human), UniProt P14920). The assay can be described thus: hDAAO (human DAAO) activity, D-serine substrate, Amplex Red fluorescence. It counts as biochemical. The procedure: The hDAAO (human DAAO) activity was measured by using D-serine as a substrate to produce H2O2. The produced H2O2 would be oxidized by peroxidase, and the produced free radicals would further react with Amplex Red reagent to emit fluorescence. The intensity of fluorescence at 590 nm would be measured to represent the activity of hDAAO. All compounds were dissolved in DMSO. Each compound was diluted with DMSO in 3-fold serial dilution to create a 9-point dose response curve. Each sample was added in triplicate, 1 μL/well, into 96-well black plates. Positive control wells were added with 1 μL of DMSO. Then 49 μL of assay buffer (100 mM Tris-HCl, pH 8.5) containing 1.2 ng/mL hDAAO, 900 nM FAD, 0.2 units/mL HRP, and 100 μM Amplex Red was added to each well of the plate using a multichannel pipette. Next, 50 μL of 100 mM D-Serine in assay buffer was added. The reaction plates were then incubated in the dark at room temperature. The fluorescence readout was detected at 0 and 20 minute by Molecular Device Gemini EM fluorescence reader using the following settings: excitation filter 530 nm, and emission filter 590 nm. The percentage of inhibition values for each well was calculated with the following equation: The percentage of inhibition=(fluorescencesample, 20 min−fluorescencesample, 0 min)/(fluorescenceDMSO, 20 min−fluorescenceDMSO, 0 min)×100%
hDAAO (human DAAO), sequence (P14920 whole entry): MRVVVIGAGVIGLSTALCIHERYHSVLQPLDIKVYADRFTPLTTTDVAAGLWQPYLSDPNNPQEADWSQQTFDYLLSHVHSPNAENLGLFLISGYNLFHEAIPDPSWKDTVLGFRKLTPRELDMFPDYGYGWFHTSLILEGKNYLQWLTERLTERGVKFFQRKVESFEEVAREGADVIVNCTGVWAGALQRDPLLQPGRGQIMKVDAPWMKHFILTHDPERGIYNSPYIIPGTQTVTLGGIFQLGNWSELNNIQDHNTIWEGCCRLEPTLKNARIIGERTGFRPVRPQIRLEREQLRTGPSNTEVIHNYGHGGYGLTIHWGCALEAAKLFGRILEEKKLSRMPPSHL
as §1

Molecules are shown by their SMILES.

The text below walks through data of patent US10336724B2, “D-amino acid oxidase inhibitors and therapeutic uses thereof” (SyneuRx International (Taiwan) Corp., priority 2017, dated 2019).

One may read the IC50 as the point on the concentration scale where inhibition reaches its midpoint.

Turning to `O=C(Oc1cc(Cc2cccc3ccccc23)n[nH]c1=O)c1cc(CCc2ccccc2Cl)n[nH]1`, the IC50 in assay [1] fell in the range of 10 to 100 nM; on hDAAO (human DAAO), 100 to 500 nM.
The matching figures for `O=C(Oc1cc(CCc2cccc3ccccc23)n[nH]c1=O)c1cc(CCc2ccc(Cl)cc2)n[nH]1`: 10 to 100 nM and 100 to 500 nM.
In the same order, the values of `O=C(Oc1cc(CCc2cccc3ccccc23)n[nH]c1=O)c1cc(CCc2ccccc2)n[nH]1` are 10 to 100 nM and 100 to 500 nM.
In the same order, the values of `O=C(Oc1cc(Cc2ccc3ccccc3c2)n[nH]c1=O)c1cc(CCc2ccccc2)n[nH]1` are 10 to 100 nM and 100 to 500 nM.
On to `O=C(Oc1coc(CO)cc1=O)c1cc(CCc2ccc(Cl)cc2)c[nH]1` [Compound 5, 6-(hydroxymethyl)-4-oxo-4H-pyran-3-yl 4-(4-chlorophenethyl)-1H-pyrrole-2-carboxylate], for which the IC50 (in assay [1]; on hDAAO (human DAAO)) was 10000 to 100000 nM in each case.
As for `O=C(Oc1coc(CO)cc1=O)c1cc2occc2[nH]1` [Compound 9, 6-(hydroxymethyl)-4-oxo-4H-pyran-3-yl 4H-furo[3,2-b]pyrrole-5-carboxylate], the IC50 in assay [1] was in the range of 10000 to 100000 nM; on hDAAO (human DAAO), 1000 to 10000 nM.
For the molecule `O=C(Oc1coc(CSc2ccc(Cl)cc2)cc1=O)c1cc(CCc2ccc(Cl)cc2)c[nH]1` [Compound 14, 6-(((4-chlorophenyl)thio)methyl)-4-oxo-4H-pyran-3-yl 4-(4-chlorophenethyl)-1H-pyrrole-2-carboxylate], the concentration for half-maximal inhibition (IC50) in assay [1] is 10000 to 100000 nM; against hDAAO (human DAAO) it was 1000 to 10000 nM.
In the same order, the values of `O=C(Oc1cc2c(Cl)cccc2[nH]c1=O)c1cc(CCc2ccc(Cl)cc2)c[nH]1` [Compound 18, 5-chloro-2-oxo-1,2-dihydroquinolin-3-yl 4-(4-chlorophenethyl)-1H-pyrrole-2-carboxylate] are 1000 to 10000 nM and 100 to 500 nM.
In the same order, the values of `O=C(Oc1cc2c(Cl)cccc2[nH]c1=O)c1cc(CCc2ccccc2)c[nH]1` [Compound 23, 5-chloro-2-oxo-1,2-dihydroquinolin-3-yl 4-phenethyl-1H-pyrrole-2-carboxylate] are 1000 to 10000 nM and 100 to 1000 nM.
Regarding `O=C(Oc1cc2c(Cl)cccc2[nH]c1=O)c1cc(CCc2ccccc2)n[nH]1` [Compound 27, 5-chloro-2-oxo-1,2-dihydroquinolin-3-yl 3-phenethyl-1H-pyrazole-5-carboxylate], the values for the IC50 (in assay [1]; on hDAAO (human DAAO)) were 100 to 1000 nM and 100 to 500 nM, respectively.
In the same order, the values of `O=C(Oc1cc2c(Cl)cccc2[nH]c1=O)c1cc(CCc2ccc(Cl)cc2)n[nH]1` [Compound 32, 5-chloro-2-oxo-1,2-dihydroquinolin-3-yl 3-(4-chlorophenethyl)-1H-pyrazole-5-carboxylate] are 100 to 500 nM and 100 to 1000 nM.
The matching figures for `O=C(Oc1cc(CSc2ccc(Cl)c(Cl)c2)c[nH]c1=O)c1cc(CCc2ccccc2)n[nH]1` [Compound 49, 5-(((3,4-dichlorophenyl)thio)methyl)-2-oxo-1,2-dihydropyridin-3-yl 3-phenethyl-1H-pyrazole-5-carboxylate]: 100 to 1000 nM and 1000 to 10000 nM.
For `O=C(Oc1cc(CSc2ccc(Cl)c(Cl)c2)c[nH]c1=O)c1cc(CCc2ccccc2)c[nH]1` [Compound 50, 5-(((3,4-dichlorophenyl)thio)methyl)-2-oxo-1,2-dihydropyridin-3-yl 4-phenethyl-1H-pyrrole-2-carboxylate], the IC50 (in assay [1]; against hDAAO (human DAAO)) was 1000 to 10000 nM throughout.
As to `O=C(Oc1cc(CCc2cc(F)cc(F)c2)n[nH]c1=O)c1cc(CCc2ccc(Cl)cc2)c[nH]1` [Compound 56, 6-(3,5-difluorophenethyl)-3-oxo-2,3-dihydropyridazin-4-yl 4-(4-chlorophenethyl)-1H-pyrrole-2-carboxylate], the results for the IC50 (in assay [1]; against hDAAO (human DAAO)) were 10000 to 100000 nM and 1000 to 10000 nM, respectively.
The matching figures for `O=C(Oc1cc(Cc2cccc3ccccc23)n[nH]c1=O)c1cc(CCc2ccccc2)n[nH]1` [Compound 62, 6-(naphthalen-1-ylmethyl)-3-oxo-2,3-dihydropyridazin-4-yl 3-phenethyl-1H-pyrazole-5-carboxylate]: 10 to 100 nM and 100 to 1000 nM.
In the same order, the values of `O=C(Oc1cc(Cc2cccc3ccccc23)n[nH]c1=O)c1cc(CCc2cccc(Cl)c2)n[nH]1` [Compound 67, 6-(naphthalen-1-ylmethyl)-3-oxo-2,3-dihydropyridazin-4-yl 3-(3-chlorophenethyl)-1H-pyrazole-5-carboxylate] are 10 to 100 nM and 100 to 500 nM.
In the same order, the values of `O=C(Oc1cc(Cc2cccc3ccccc23)n[nH]c1=O)c1cc(CCc2ccc(F)cc2)n[nH]1` [Compound 72, 6-(naphthalen-1-ylmethyl)-3-oxo-2,3-dihydropyridazin-4-yl 3-(4-fluorophenethyl)-1H-pyrazole-5-carboxylate] are 10 to 100 nM and 100 to 500 nM.
As to `O=C(Oc1cc(Cc2cccc3ccccc23)n[nH]c1=O)c1cc(Cc2ccccc2)n[nH]1` [Compound 77, 6-(naphthalen-1-ylmethyl)-3-oxo-2,3-dihydropyridazin-4-yl 3-benzyl-1H-pyrazole-5-carboxylate], the IC50 fell in the range of 10 to 100 nM in assay [1] and 100 to 1000 nM at hDAAO (human DAAO).
